Data published in PubChem BioAssay (NCI).
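96-well plates; 48 h exposure; 5 concentrations. Endpoints by linear interpolation between flanking doses. Not reached: highest tested concentration assigned. Abbreviation: GI50, concentration required for 50% inhibition of growth. TGI marks complete inhibition of growth.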

Columns and labels:
Experiment in all cases: NCI anticancer screen, dose series, 48 h
[1] = tested on: SF-268 CNS
[2] = tested on: MCF7 breast
[3] = tested on: CAKI-1 renal
[4] = tested on: PC-3 prostate
[5] = tested on: OVCAR-8 ovarian
[6] = tested on: CCRF-CEM leukemia
[7] = tested on: SF-295 CNS
[8] = tested on: SK-OV-3 ovarian
[9] = tested on: IGROV1 ovarian
[10] = tested on: OVCAR-5 ovarian
[11] = tested on: NCI/ADR-RES ovarian
[12] = tested on: KM12 colon
[13] = tested on: COLO 205 colon
[14] = tested on: UACC-62 melanoma
[15] = tested on: K-562 leukemia
[16] = tested on: HL-60(TB) leukemia
[17] = tested on: ACHN renal
[18] = tested on: SK-MEL-5 melanoma
[19] = tested on: HCC-2998 colon
[20] = tested on: SK-MEL-2 melanoma
[21] = tested on: T-47D breast
[22] = tested on: U251 CNS
[23] = tested on: NCI-H460 lung
[24] = tested on: RPMI-8226 leukemia
[25] = tested on: NCI-H23 lung
[26] = tested on: HCT-116 colon
[27] = tested on: HOP-62 NSCLC
[28] = tested on: LOX IMVI melanoma
[29] = tested on: HOP-92 NSCLC
[30] = tested on: MDA-MB-231 breast
[31] = tested on: A549 NSCLC
[32] = tested on: HCT-15 colon
[33] = tested on: OVCAR-4 ovarian
[34] = tested on: SNB-19 CNS
[35] = tested on: SNB-75 CNS
[36] = tested on: 786-0 renal
[37] = tested on: DU-145 prostate
[38] = tested on: SW-620 colon
[39] = tested on: HS 578T breast
[40] = tested on: MALME-3M melanoma
[41] = tested on: BT-549 breast
[42] = tested on: UO-31 renal
[43] = tested on: HT29 colon
[44] = tested on: SR leukemia
[45] = tested on: MOLT-4 leukemia
[46] = tested on: TK-10 renal
[47] = tested on: SF-539 CNS
[48] = tested on: SN12C renal

COc1cc(-c2nccc3[nH]c(-c4ccc5cc[nH]c5c4)nc23)cc(OC)c1OC
GI50 [1]: < 0.01 µM
TGI [1]: 3.21 µM
GI50 [2]: 0.0568 µM
TGI [2]: 2.87 µM
GI50 [3]: < 0.01 µM
TGI [3]: 11.2 µM
GI50 [4]: < 0.01 µM
TGI [4]: 4.74 µM
GI50 [5]: < 0.01 µM
TGI [5]: 11.1 µM
GI50 [6]: < 0.01 µM
TGI [6]: 12.2 µM
GI50 [7]: < 0.01 µM
TGI [7]: < 0.01 µM
GI50 [8]: < 0.01 µM
TGI [8]: 5.66 µM
GI50 [9]: 0.015 µM
TGI [9]: 3.77 µM
GI50 [10]: 1.3 µM
TGI [10]: 12.1 µM
GI50 [11]: 0.01 µM
TGI [11]: 10.7 µM
GI50 [12]: < 0.01 µM
TGI [12]: 1.5 µM
GI50 [13]: < 0.01 µM
TGI [13]: < 0.01 µM
GI50 [14]: < 0.01 µM
TGI [14]: 2.57 µM
GI50 [15]: < 0.01 µM
TGI [15]: 2.28 µM
GI50 [16]: < 0.01 µM
TGI [16]: < 0.01 µM
GI50 [17]: < 0.01 µM
TGI [17]: 3.02 µM
GI50 [18]: < 0.01 µM
TGI [18]: 0.563 µM
GI50 [19]: < 0.01 µM
TGI [19]: 1.43 µM
GI50 [20]: < 0.01 µM
TGI [20]: 3.06 µM
GI50 [21]: 1.26 µM
TGI [21]: 4.38 µM
GI50 [22]: < 0.01 µM
TGI [22]: 1.85 µM
GI50 [23]: < 0.01 µM
TGI [23]: 1.04 µM
GI50 [24]: 0.0448 µM
TGI [24]: 5.16 µM
GI50 [25]: < 0.01 µM
TGI [25]: 4.2 µM
GI50 [26]: < 0.01 µM
TGI [26]: 1.13 µM
GI50 [27]: < 0.01 µM
TGI [27]: 2.67 µM
GI50 [28]: < 0.01 µM
TGI [28]: 1.5 µM
GI50 [29]: 0.306 µM
TGI [29]: 4.98 µM
GI50 [30]: < 0.01 µM
TGI [30]: 1.96 µM
GI50 [31]: 0.0113 µM
TGI [31]: 1.77 µM
GI50 [32]: < 0.01 µM
TGI [32]: 1.31 µM
GI50 [33]: 0.0307 µM
TGI [33]: 17.1 µM
GI50 [34]: < 0.01 µM
TGI [34]: 15.8 µM
GI50 [35]: < 0.01 µM
TGI [35]: 6.6 µM
GI50 [36]: < 0.01 µM
TGI [36]: 2.03 µM
GI50 [37]: < 0.01 µM
TGI [37]: 11.4 µM
GI50 [38]: < 0.01 µM
TGI [38]: 1.6 µM
GI50 [39]: < 0.01 µM
TGI [39]: 10.3 µM
GI50 [40]: 1.29 µM
TGI [40]: 3.2 µM
GI50 [41]: < 0.01 µM
TGI [41]: 2.71 µM
GI50 [42]: < 0.01 µM
TGI [42]: 2.93 µM
GI50 [43]: < 0.01 µM
TGI [43]: 1.08 µM
GI50 [44]: < 0.01 µM
TGI [44]: 11.9 µM
GI50 [45]: < 0.01 µM
TGI [45]: 7.26 µM
GI50 [46]: 1.13 µM
TGI [46]: 7.88 µM
GI50 [47]: < 0.01 µM
TGI [47]: < 0.01 µM
GI50 [48]: < 0.01 µM
TGI [48]: 9.93 µM
